Drawing on patent US7112585B2, “Pyrimidine derivatives as corticotropin releasing factor inhibitors” (Bristol-Myers Squibb Company, priority 2003, dated 2006), this text covers Ki, melting point and activity for 21 compounds.

One may read the Ki as a measure of affinity in units of concentration, obtained from inhibition or displacement. A word on the melting point: it is the temperature, or range, at which the solid turns liquid.

Structures are written as SMILES.

Data set [1] addresses T1, cloned human CRF-R1 receptors (Homo sapiens, UniProt P34998).
T1 construct: the coding region was amplifies by PCR from start to stop codons; expressed in transfected cells; host or cells: 293EBNA (HEK 293 EBNA-1) cells, episomal vector phchCRFR, hygromycin-selected pool; membranes
T1 sequence (P34998 24-415): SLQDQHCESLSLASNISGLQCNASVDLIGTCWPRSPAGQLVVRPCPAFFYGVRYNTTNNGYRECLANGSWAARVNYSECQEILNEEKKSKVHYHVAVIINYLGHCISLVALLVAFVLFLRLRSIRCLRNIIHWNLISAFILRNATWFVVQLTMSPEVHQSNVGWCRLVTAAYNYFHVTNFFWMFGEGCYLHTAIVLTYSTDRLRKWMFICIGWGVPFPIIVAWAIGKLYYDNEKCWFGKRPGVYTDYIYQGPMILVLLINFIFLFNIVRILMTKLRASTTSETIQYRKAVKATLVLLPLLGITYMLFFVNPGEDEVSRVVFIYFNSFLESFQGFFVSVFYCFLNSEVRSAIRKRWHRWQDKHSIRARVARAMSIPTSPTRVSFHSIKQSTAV
The experiment in a line: CRF-R1 Receptor Binding Assay (inhibition of 125I-ovine-CRF binding to cell membranes). More on the design: key to activity: a: Ki≦100 nM; b: 100 nM<Ki≦500 nM; c: 500 nM<Ki≦5,000 nM; activity reported in percent inhibition at 10 μM. Particulars: CRF assays; class d = activity only as percent inhibition at 10 μM (value not given). An excerpt: CRF-R1 Receptor Binding Assay for the Evaluation of Biological Activity
The following is a description of the isolation of cell membranes containing cloned human CRF-R1 receptors for use in a standard binding assay as well as a description of the assay itself.
Messenger RNA was isolated from human hippocampus. The mRNA was isolated from human hippocampus. The mRNA was reverse transcribed using oligo (dt) 12–18 and the coding region was amplifies by PCR from start to stop codons. The resulting PCR fragment was cloned into the EcORV site of pGEMV, from whence the insert was reclaimed using XhoI+XbaI and cloned into the XhoI+XbaI sites of vector pm3as (which contains a CMV promoter, the SV′t′ splice and early poly A signals, an Eptein-Barr viral origin of replication, and a hygromycin selectable marker). The resulting expression vector, called phchCRFR was transfected in 293EBNA cells and cells retaining the episome were selected in the presence of […] hygromycin. Cells surviving 4 weeks of selection in hygromycin were pooled, adapted to growth in suspension and used to generate membranes for the binding assay described below. Individual aliquots containing approximately 1×10^8 of the suspended cells were then centrifuged to form a pellet and frozen. For the binding assay a frozen pellet described above containing 293EBNA cells transfected with hCRFR1 receptors is homogenized in 10 mL of ice cold tissue buffer (50 mM HEPES buffer pH 7.0, containing 10 MM MgCl2, 2 mM EGTA, 1 μg/mL apotinin, 1 μg/mL leupeptin and 1 μg/mL pepstatin). The homoginate is centrifuged at 40,000×g for 12 min and the resulting pellet rehomogenized in 10 mL of tissue buffer. After another centrifugation at 40,000×g for 12 min, the pellet is resuspended to a protein concentration of 360 μg/mL to be used in the assay.
Binding assays are performed in 96 well plates; each well having a 300 μL capacity. To each well is added 50 μL of test drug dilutions (final concentration of drugs range from 10^−10–10^−5 M), 100 μL of ^125I-ovine-CRF (^125I-o-CRF) (final concentration 150 pM) and 150 μL of the cell homoginate described above. Plates are then allowed to incubate at room temperature for 2 hours before filtering the incubate over GF/F filters (presoaked with 0.3% polyethyleneimine) using an appropriate cell harvester. Filters are rinsed 2 times with ice cold assay buffer before removing individual filters and assessing them for radioactivity on a gamma counter.
Curves of the inhibition of ^125I-o-CRF binding to cell membranes at various dilutions of test drug are analyzed by the iterative curve fitting program LIGAND [P. J. Munson and D. Rodbard, Anal. Biochem., 107:220 (1980), which provides Ki values for inhibition which are then used to assess biological activity. […]
Messenger RNA was isolated from human hippocampus. The mRNA was isolated from human hippocampus. The mRNA was reverse transcribed using oligo (dt) 12–18 and the coding region was amplifies by PCR from start to stop codons. The resulting PCR fragment was cloned into the EcORV site of pGEMV, from whence the insert was reclaimed using XhoI+XbaI and cloned into the XhoI+XbaI sites of vector pm3as (which contains a CMV promoter, the SV′t′ splice and early poly A signals, an Eptein-Barr viral origin of replication, and a hygromycin selectable marker). The resulting expression vector, called phchCRFR was transfected in 293EBNA cells and cells retaining the episome were selected in the presence of […] hygromycin. Cells surviving 4 weeks of selection in hygromycin were pooled, adapted to growth in suspension and used to generate membranes for the binding assay described below. […]
A frozen pellet described above containing 293EBNA cells transfected with hCRFR1 receptors or the rat frontal cortex tissue dissected from frozen rat brains was prepared as the source of membranes expressing CRF1 receptors used in binding assays. […]

For `COc1ccc(S(=O)(=O)c2cnc(C)nc2Nc2c(C)cc(C)cc2C)cc1` [Example 1, [5-(4-Methoxybenzenesulfonyl)-2-methylpyrimidin-4-yl]-(2,4,6-trimethylphenyl)-amine], the melting point was 153 to 155 °C. This compound registered a Ki in data set [1] of 100 to 500 nM.
For `Cc1cc(C)c(Nc2nc(C)ncc2S(=O)(=O)c2ccc(O)cc2)c(C)c1` [Example 2, 4-[2-Methyl-4-(2,4,6-trimethylphenylamino)-pyrimidine-5-sulfonyl]-phenol], in that order: 246 to 248 °C and 500 to 5000 nM.
As to `CC(=O)Oc1ccc(S(=O)(=O)c2cnc(C)nc2Nc2c(C)cc(C)cc2C)cc1` [Example 3, Acetic acid 4-[2-methyl-4-(2,4,6-trimethylphenylamino)-pyrimidine-5-sulfonyl]-phenyl ester], the melting point lay in the range of 142 to 144 °C. In data set [1], this compound displayed a Ki of 500 to 5000 nM.
`Cc1cc(C)c(Nc2nc(C)ncc2S(=O)(=O)c2ccc(OCc3ccccc3)cc2)c(C)c1` [Example 4, [5-(4-Benzyloxybenzenesulfonyl)-2-methylpyrimidin-4-yl]-(2,4,6-trimethylphenyl)-amine] yielded a melting point of 166 to 168 °C. Also, the Ki in data set [1] was ≤ 100 nM.
`COc1ccc(Nc2nc(C)ncc2S(=O)(=O)c2ccc(OCc3ccccc3)cc2)c(C)c1` [Example 5, [5-(4-Benzyloxybenzenesulfonyl)-2-methylpyrimidin-4-yl]-(4-methoxy-2-methylphenyl)-amine] displayed a melting point of 110 to 114 °C. The Ki in data set [1] is 100 to 500 nM.
As to `COc1ccc(Nc2nc(C)ncc2S(=O)(=O)c2ccc(OCc3ccccc3)cc2)c(C)n1` [Example 6, [5-(4-Benzyloxybenzenesulfonyl)-2-methylpyrimidin-4-yl]-(6-methoxy-2-methylpyridin-3-yl)-amine], the melting point fell in the range of 160 to 165 °C. Besides, the activity result in data set [1] was “d”.
For `Cc1cc(C)c(Nc2nc(C)ncc2S(=O)(=O)c2cccc(OCc3ccccc3)c2)c(C)c1` [Example 7, [5-(3-Benzyloxybenzenesulfonyl)-2-methylpyrimidin-4-yl]-(2,4,6-trimethylphenyl)-amine], the melting point was 112 to 115 °C. In data set [1], the Ki is 100 to 500 nM.
For the compound `COc1ncc(S(=O)(=O)c2cccc(OCc3ccccc3)c2)c(Nc2c(C)cc(C)cc2C)n1` [Example 8, [5-(3-Benzyloxybenzenesulfonyl)-2-methoxypyrimidin-4-yl]-(2,4,6-trimethylphenyl)-amine], the activity result in data set [1] is recorded as “d”.
`Cc1cc(C)c(Nc2nc(N(C)C)ncc2S(=O)(=O)c2cccc(OCc3ccccc3)c2)c(C)c1` [Example 9, 5-(3-Benzyloxybenzenesulfonyl)-N^2,N^2-dimethyl-N^4-(2,4,6-trimethylphenyl)-pyrimidine-2,4-diamine] gave a melting point of 52 to 58 °C. The same compound had a Ki in data set [1] of 500 to 5000 nM.
Consider `COc1ccccc1COc1ccc(S(=O)(=O)c2cnc(C)nc2Nc2c(C)cc(C)cc2C)cc1` [Example 10, {5-[4-(2-Methoxybenzyloxy)-benzenesulfonyl]-2-methylpyrimidin-4-yl}-(2,4,6-trimethylphenyl)-amine], for which the melting point was 200 to 202 °C. The Ki in data set [1] is ≤ 100 nM.
In the case of `COc1cc(COc2ccc(S(=O)(=O)c3cnc(C)nc3Nc3c(C)cc(C)cc3C)cc2)cc(OC)c1` [Example 11, {5-[4-(3,5-Dimethoxybenzyloxy)-benzenesulfonyl]-2-methylpyrimidin-4-yl}-(2,4,6-trimethylphenyl)-amine], the Ki in data set [1] was ≤ 100 nM.
With `COc1ccc(Nc2nc(C)ncc2S(=O)(=O)c2ccc(OCc3ccccc3)cc2)c(OC)c1` [Example 12, [5-(4-Benzyloxybenzenesulfonyl)-2-methylpyrimidin-4-yl]-(2,4-dimethoxyphenyl)-amine], in data set [1], the activity result is on record as “d”.
Turning to `COc1ccc(S(=O)(=O)c2cnc(C)nc2Cc2c(C)cc(C)cc2C)cc1` [Example 13, 5-(4-Methoxyoxybenzenesulfonyl)-2-methyl-4-(2,4,6-trimethylbenzyl)-pyrimidine], the melting point fell in the range of 150 to 152 °C. Also, the Ki in data set [1] was in the range of 100 to 500 nM.
In turn, `Cc1cc(C)c(Cc2nc(C)ncc2S(=O)(=O)c2ccc(OCc3ccccc3)cc2)c(C)c1` [Example 14, 5-(4-Benzyloxybenzenesulfonyl)-2-methyl-4-(2,4,6-trimethylbenzyl)-pyrimidine] yielded a melting point of 166 to 168 °C. For the same compound, in data set [1], the Ki was ≤ 100 nM.
Consider `Cc1cc(C)c(Nc2nc(C)ncc2S(=O)(=O)c2ccc(F)cc2)c(C)c1` [Example 15, [5-(4-Fluorobenzenesulfonyl)-2-methylpyrimidin-4-yl]-(2,4,6-trimethylphenyl)-amine], for which the melting point was 191 to 193 °C. Besides, the Ki in data set [1] was in the range of 100 to 500 nM.
For `Cc1cc(C)c(Nc2nc(C)ncc2S(=O)(=O)c2ccc(N3CCOCC3)cc2)c(C)c1` [Example 16, [2-Methyl-5-(4-morpholin-4-yl-benzenesulfonyl)-pyrimidin-4-yl]-(2,4,6-trimethylphenyl)-amine], the melting point fell in the range of 221 to 223 °C. Also, the activity result in data set [1] is reported as “d”.
On to `Cc1cc(C)c(Nc2nc(C)ncc2S(=O)(=O)c2ccc(N3CCN(C)CC3)cc2)c(C)c1` [Example 17, {2-Methyl-5-[4-(4-methylpiperazin-1-yl)-benzenesulfonyl]-pyrimidin-4-yl}-(2,4,6-trimethylphenyl)-amine], for which the activity result in data set [1] is on record as “d”.
For `Cc1cc(C)c(Nc2nc(C)ncc2S(=O)(=O)c2ccc(-n3ccnc3)cc2)c(C)c1` [Example 18, [5-(4-Imidazol-1-yl-benzenesulfonyl)-2-methylpyrimidin-4-yl]-(2,4,6-trimethylphenyl)-amine], the melting point lay within 230 to 232 °C. Also, the activity result in data set [1] is “d”.
As for `Cc1cc(C)c(Nc2nc(C)ncc2S(=O)(=O)c2ccc(N3CCCC3)cc2)c(C)c1` [Example 19, [2-Methyl-5-(4-pyrrolidin-1-yl-benzenesulfonyl)-pyrimidin-4-yl]-(2,4,6-trimethylphenyl)-amine], the melting point lay within 196 to 198 °C. For the same compound, the activity entry in data set [1] is listed as “d”.
The compound `Cc1cc(C)c(Nc2nc(C)ncc2S(=O)(=O)c2ccc(NCc3ccccc3)cc2)c(C)c1` [Example 20, [5-(4-Benzylaminobenzenesulfonyl)-2-methylpyrimidin-4-yl]-(2,4,6-trimethylphenyl)-amine] showed a melting point of 200 to 202 °C. The same compound displayed a Ki in data set [1] of 100 to 500 nM.
Take `Cc1cc(C)c(Nc2nc(C)ncc2S(=O)(=O)c2ccc(N(C)Cc3ccccc3)cc2)c(C)c1` [Example 21, {5-[4-(Benzylmethylamino)-benzenesulfonyl]-2-methylpyrimidin-4-yl}-(2,4,6-trimethylphenyl)-amine]: the melting point fell in the range of 146 to 148 °C. The Ki in data set [1] was ≤ 100 nM.
